# Source: patent US9840509B2, “Heterocyclic compounds” (CADILA HEALTHCARE LIMITED, priority 2014, dated 2017)
# Experiments:
# [1] = biological target: T1, recombinant purified human BTK (Homo sapiens, UniProt Q06187); test: In vitro BTK kinase assay on ADP Glo platform; type: biochemical; conditions: 2 hr room temperature, read-out: In-vitro BTK inhibitory activity: IC50
# T1 construct: purchased SignalChem, USA
# Procedure, shortened: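 Recombinant human BTK (3 ng/reaction) with compound dilutions in Tris pH 7.5, MgCl2/MnCl2, BSA, DTT; started with 50 µM ATP (final) and polyGln4Tyr1 substrate, 2 h at room temperature. ADP formed detected by ADP-Glo luminescence; IC50 by nonlinear fit versus uninhibited enzyme as 100%.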
# CYP 3A4 = biological target: T2, CYP 3A4 (Homo sapiens, UniProt P08684); test: CYP inhibition in human liver microsomes, 3A4; type: in vitro ADME; conditions: pH 7.4, @ 10 μM concn
# T2 construct: from tissue; host or cells: human liver microsomes
# T2 sequence (P08684 whole entry): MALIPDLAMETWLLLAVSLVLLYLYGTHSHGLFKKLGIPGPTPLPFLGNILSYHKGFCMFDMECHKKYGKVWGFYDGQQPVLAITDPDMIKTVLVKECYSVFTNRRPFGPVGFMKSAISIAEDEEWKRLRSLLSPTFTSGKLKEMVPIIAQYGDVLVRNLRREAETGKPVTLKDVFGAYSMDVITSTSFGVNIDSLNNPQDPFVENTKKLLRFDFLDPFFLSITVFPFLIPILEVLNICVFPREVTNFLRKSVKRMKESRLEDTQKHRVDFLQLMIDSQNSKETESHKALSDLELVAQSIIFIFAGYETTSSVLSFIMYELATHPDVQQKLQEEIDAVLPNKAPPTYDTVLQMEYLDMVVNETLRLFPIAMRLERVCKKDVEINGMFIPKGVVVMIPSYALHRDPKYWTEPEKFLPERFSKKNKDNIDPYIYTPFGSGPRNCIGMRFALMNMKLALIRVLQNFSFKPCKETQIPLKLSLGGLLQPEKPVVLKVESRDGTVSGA
# Procedure, shortened: (§1)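 Human liver microsomes in 100 mM phosphate pH 7.4 with CYP-specific probe substrate were incubated with test compound at […] and 10 μM, started with 1 mM NADPH at 37° C. Reactions were stopped with acetonitrile, and marker-reaction metabolites were quantified by LC-MS/MS. Final solvent was ≤0.2%.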
# CYP 2C19 = biological target: T3, CYP 2C19 (Homo sapiens, UniProt P33261); test: CYP inhibition in human liver microsomes, 2C19; type: in vitro ADME; conditions: pH 7.4, @ 10 μM concn
# T3 construct: from tissue; host or cells: human liver microsomes
# T3 sequence (P33261 whole entry): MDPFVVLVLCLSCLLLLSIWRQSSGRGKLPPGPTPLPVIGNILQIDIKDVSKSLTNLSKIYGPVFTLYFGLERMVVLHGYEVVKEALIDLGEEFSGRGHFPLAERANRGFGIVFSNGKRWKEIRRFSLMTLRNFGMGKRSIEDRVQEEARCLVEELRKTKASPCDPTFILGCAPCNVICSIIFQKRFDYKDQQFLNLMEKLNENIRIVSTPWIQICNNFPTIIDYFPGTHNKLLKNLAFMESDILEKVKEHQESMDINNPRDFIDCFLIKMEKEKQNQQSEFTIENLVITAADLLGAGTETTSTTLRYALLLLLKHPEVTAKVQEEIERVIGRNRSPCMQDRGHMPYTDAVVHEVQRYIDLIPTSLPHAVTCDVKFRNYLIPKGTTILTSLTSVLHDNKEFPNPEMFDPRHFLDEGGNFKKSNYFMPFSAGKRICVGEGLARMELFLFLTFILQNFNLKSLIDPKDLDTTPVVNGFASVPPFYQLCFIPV
# Procedure, shortened: as §1
# CYP 1A2 = biological target: T4, CYP 1A2 (Homo sapiens, UniProt P05177); test: CYP inhibition in human liver microsomes, 1A2; type: in vitro ADME; conditions: pH 7.4, @ 10 μM concn
# T4 construct: from tissue; host or cells: human liver microsomes
# T4 sequence (P05177 1-516): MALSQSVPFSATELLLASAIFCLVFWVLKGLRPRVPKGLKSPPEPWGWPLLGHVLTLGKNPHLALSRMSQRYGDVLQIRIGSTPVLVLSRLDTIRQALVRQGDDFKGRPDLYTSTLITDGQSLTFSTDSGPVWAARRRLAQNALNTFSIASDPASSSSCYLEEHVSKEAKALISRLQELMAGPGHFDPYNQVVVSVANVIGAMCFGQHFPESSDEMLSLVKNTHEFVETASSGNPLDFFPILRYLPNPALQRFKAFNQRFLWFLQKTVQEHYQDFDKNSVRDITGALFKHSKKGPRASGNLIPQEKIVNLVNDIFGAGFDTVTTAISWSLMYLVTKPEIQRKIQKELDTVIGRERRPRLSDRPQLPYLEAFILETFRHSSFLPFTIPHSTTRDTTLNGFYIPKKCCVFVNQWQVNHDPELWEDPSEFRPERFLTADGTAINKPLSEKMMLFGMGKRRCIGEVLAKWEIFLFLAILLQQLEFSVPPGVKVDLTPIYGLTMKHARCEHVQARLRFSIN
# Procedure, shortened: as §1
# CYP 2C8 = biological target: T5, CYP 2C8 (Homo sapiens, UniProt P10632); test: CYP inhibition in human liver microsomes, 2C8; type: in vitro ADME; conditions: pH 7.4, @ 10 μM concn
# T5 construct: from tissue; host or cells: human liver microsomes
# T5 sequence (P10632 1-490): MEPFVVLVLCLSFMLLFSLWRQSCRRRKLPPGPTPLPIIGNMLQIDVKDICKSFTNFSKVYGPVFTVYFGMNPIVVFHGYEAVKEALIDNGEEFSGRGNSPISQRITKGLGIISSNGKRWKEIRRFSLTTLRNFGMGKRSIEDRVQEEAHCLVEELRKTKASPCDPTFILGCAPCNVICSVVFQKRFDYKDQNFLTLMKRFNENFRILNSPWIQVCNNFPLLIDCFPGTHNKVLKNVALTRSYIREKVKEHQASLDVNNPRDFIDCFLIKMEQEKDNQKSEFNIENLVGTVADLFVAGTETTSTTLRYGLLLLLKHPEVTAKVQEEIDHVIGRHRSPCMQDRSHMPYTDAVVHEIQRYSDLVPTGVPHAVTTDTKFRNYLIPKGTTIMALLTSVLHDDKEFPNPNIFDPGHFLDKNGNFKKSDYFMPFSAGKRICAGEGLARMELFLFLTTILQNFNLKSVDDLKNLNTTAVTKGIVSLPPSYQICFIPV
# Procedure, shortened: as §1
# CYP 2D6 = biological target: T6, CYP 2D6 (Homo sapiens, UniProt P10635); test: CYP inhibition in human liver microsomes, 2D6; type: in vitro ADME; conditions: pH 7.4, @ 10 μM concn
# T6 construct: from tissue; host or cells: human liver microsomes
# T6 sequence (P10635 whole entry): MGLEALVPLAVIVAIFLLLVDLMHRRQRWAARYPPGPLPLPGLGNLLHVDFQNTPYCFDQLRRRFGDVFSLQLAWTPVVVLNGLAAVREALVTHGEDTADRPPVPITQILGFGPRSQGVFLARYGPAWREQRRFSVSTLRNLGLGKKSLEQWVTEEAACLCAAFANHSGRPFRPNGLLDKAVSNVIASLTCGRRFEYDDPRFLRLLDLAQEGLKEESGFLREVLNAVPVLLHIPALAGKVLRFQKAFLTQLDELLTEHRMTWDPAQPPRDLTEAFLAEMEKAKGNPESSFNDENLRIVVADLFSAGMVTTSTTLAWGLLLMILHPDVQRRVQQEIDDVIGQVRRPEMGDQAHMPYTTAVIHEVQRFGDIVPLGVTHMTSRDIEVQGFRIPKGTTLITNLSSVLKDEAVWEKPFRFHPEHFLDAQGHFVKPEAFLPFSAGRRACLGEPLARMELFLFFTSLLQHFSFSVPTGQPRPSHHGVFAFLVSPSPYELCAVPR
# Procedure, shortened: as §1
# CYP 2C9 = biological target: T7, CYP 2C9 (Homo sapiens, UniProt P11712); test: CYP inhibition in human liver microsomes, 2C9; type: in vitro ADME; conditions: pH 7.4, @ 10 μM concn
# T7 construct: from tissue; host or cells: human liver microsomes
# T7 sequence (P11712 whole entry): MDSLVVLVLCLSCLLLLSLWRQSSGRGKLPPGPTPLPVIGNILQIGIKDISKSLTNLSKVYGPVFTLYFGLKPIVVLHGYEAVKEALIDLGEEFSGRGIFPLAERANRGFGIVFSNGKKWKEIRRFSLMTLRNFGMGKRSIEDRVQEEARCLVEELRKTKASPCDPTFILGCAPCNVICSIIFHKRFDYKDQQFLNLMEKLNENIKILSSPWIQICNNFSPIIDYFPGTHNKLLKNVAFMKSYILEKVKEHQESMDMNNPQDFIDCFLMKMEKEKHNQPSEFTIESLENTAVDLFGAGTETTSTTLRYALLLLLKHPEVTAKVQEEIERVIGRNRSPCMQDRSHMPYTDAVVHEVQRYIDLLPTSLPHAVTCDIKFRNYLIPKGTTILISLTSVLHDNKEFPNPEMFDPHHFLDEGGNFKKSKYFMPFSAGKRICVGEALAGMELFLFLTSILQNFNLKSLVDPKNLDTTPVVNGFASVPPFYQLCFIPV
# Procedure, shortened: as §1
# T1 sequence (Q06187 whole entry): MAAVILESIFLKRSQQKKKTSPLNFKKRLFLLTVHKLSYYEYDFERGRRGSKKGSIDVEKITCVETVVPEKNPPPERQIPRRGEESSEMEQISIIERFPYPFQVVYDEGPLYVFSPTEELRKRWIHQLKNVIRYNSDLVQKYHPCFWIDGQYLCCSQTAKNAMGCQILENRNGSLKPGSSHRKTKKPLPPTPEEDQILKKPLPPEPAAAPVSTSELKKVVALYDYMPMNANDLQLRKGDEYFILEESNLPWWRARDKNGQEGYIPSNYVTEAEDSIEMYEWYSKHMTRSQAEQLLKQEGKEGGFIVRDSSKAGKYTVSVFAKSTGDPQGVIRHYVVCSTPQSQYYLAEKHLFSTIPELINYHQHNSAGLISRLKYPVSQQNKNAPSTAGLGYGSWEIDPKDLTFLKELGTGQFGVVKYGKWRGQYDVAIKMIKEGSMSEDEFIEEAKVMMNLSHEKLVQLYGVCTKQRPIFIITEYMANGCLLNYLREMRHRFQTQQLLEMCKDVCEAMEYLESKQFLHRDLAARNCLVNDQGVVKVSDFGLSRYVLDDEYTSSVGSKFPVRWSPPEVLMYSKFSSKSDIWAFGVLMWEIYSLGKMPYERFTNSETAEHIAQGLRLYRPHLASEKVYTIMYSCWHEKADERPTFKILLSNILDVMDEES
Structure (SMILES),IC50 [1],inhibition at 10 μM (CYP 3A4),inhibition at 10 μM (CYP 2C19),inhibition at 10 μM (CYP 1A2),inhibition at 10 μM (CYP 2C8),inhibition at 10 μM (CYP 2D6),inhibition at 10 μM (CYP 2C9)
"C=CC(=O)N1CC2CC(n3nc(-c4ccc(NC(=O)c5cnccn5)cc4)c4c(N)ncnc43)CC2C1 (stereo not shown) [Compound 35, N-(4-(1-(2-acryloyloctahydrocyclopenta[c]pyrrol-5-yl)-4-amino-1H-pyrazolo[3,4-d]pyrimidin-3-yl)phenyl)pyrazine-2-carb oxamide]",1.2 nM,< 50%,< 50%,< 50%,< 50%,< 50%,< 50%
"C=CC(=O)N1CC2CC(n3nc(-c4ccc5c(c4)OC(F)(F)O5)c4c(N)ncnc43)CC2C1 (stereo not shown) [Compound 36, 1-(5-(4-amino-3-(2,2-difluorobenzo[d] [1,3]dioxol-5-yl)-1H-pyrazolo [3,4-d]pyrimidin-1-yl)hexahydrocyclopenta[c]pyrrol-2(1H)-yl)prop-2-en-1-one]",1.1 nM,< 50%,< 50%,< 50%,< 50%,< 50%,< 50%
"C=CC(=O)N1CC2CC(n3nc(-c4ccc(C(=O)Nc5cnccn5)cc4)c4c(N)ncnc43)CC2C1 (stereo not shown) [Compound 37, 4-(1-(2-acryloyloctahydrocyclopenta[c]pyrrol-5-yl)-4-amino-1H-pyrazolo[3,4-d]pyrimidin-3-yl)-N-(pyrazin-2-yl)benzamide]",1 nM,< 50%,< 50%,< 50%,< 50%,< 50%,< 50%
"C=CC(=O)N1CC2CC(n3nc(-c4ccc(NC(=O)c5ccccc5)cc4)c4c(N)ncnc43)CC2C1 (stereo not shown) [Compound 38, N-(4-(1-(2-acryloyloctahydrocyclopenta[c]pyrrol-5-yl)-4-amino-1H-pyrazolo[3,4-d]pyrimidin-3-yl)phenyl)benzamide]",17 nM,< 50%,< 50%,< 50%,< 50%,> 50%,< 50%
"C=CC(=O)N1CC2CC(n3nc(-c4ccc(-c5nnc(-c6ccccn6)s5)cc4)c4c(N)ncnc43)CC2C1 (stereo not shown) [Compound 39, 1-(5-(4-amino-3-(4-(5-(pyridin-2-yl)-1,3,4-thiadiazol-2-yl)phenyl)-1H-pyrazolo [3,4-d]pyrimidin-1-yl)hexahydrocyclopenta[c]pyrrol-2(1H)-yl)prop-2-en-1-one]",1.4 nM,< 50%,< 50%,< 50%,< 50%,< 50%,< 50%
"C=CC(=O)N1CC2CC(n3nc(-c4ccc(C(=O)Nc5cc(C(F)(F)F)ccn5)cc4)c4c(N)ncnc43)CC2C1 (stereo not shown) [Compound 40, 4-(1-(2-acryloyloctahydrocyclopenta[c]pyrrol-5-yl)-4-amino-1H-pyrazolo[3,4-d]pyrimidin-3-yl)-N-(4-(trifluoromethyl)pyridin-2-yl)benzamide]",6 nM,< 50%,< 50%,> 50%,< 50%,< 50%,> 50%
"C=CC(=O)N1CC2CC(n3nc(-c4ccc(/C(=N/c5cc(C)ccn5)OC)cc4)c4c(N)ncnc43)CC2C1 (stereo not shown) [Compound 41, (Z)-methyl 4-(1-(2-acryloyloctahydrocyclopenta[c]pyrrol-5-yl)-4-amino-1H-pyrazolo[3,4-d]pyrimidin-3-yl)-N-(4-methylpyridin-2-yl)benzimidate]",3.5 nM,> 50%,< 50%,< 50%,< 50%,< 50%,< 50%
"C=CC(=O)N1CC2CC(n3nc(-c4ccc(Oc5ccccn5)cc4)c4c(N)ncnc43)CC2C1 (stereo not shown) [Compound 43, 1-(5-(4-amino-3-(4-(pyridin-2-yloxy)phenyl)-1H-pyrazolo[3,4-d]pyrimidin-1-yl)hexahydrocyclopenta[c]pyrrol-2(1H)-yl)prop-2-en-1-one]",2 nM,< 50%,< 50%,< 50%,< 50%,< 50%,< 50%
"CN(C)C/C=C/C(=O)N1CC2CC(n3nc(-c4ccc(C(=O)Nc5ccccn5)cc4)c4c(N)ncnc43)CC2C1 (stereo not shown) [Compound 44, (E)-4-(4-amino-1-(2-(4-(dimethylamino)but-2-enoyl)octahydrocyclopenta [c]pyrrol-5-yl)-1H-pyrazolo[3,4-d]pyrimidin-3-yl)-N-(pyridin-2-yl) benzamide]",1.4 nM,< 50%,< 50%,< 50%,< 50%,< 50%,< 50%
"Cc1ccnc(NC(=O)c2ccc(-c3nn(C4CC5CN(C(=O)/C=C/CN(C)C)CC5C4)c4ncnc(N)c34)cc2)c1 (stereo not shown) [Compound 45, (E)-4-(4-amino-1-(2-(4-(dimethylamino)but-2-enoyl)octahydrocyclopenta[c]pyrrol-5-yl)-1H-pyrazolo[3,4-d]pyrimidin-3-yl)-N-(4-methylpyridin-2-yl) benzamide]",10 nM,< 50%,< 50%,> 50%,< 50%,< 50%,< 50%
"CN(C)C/C=C/C(=O)N1CC2CC(n3nc(-c4ccc(Oc5ccccn5)cc4)c4c(N)ncnc43)CC2C1 (stereo not shown) [Compound 47, (E)-1-(5-(4-amino-3-(4-(pyridin-2-yloxy)phenyl)-1H-pyrazolo[3,4-d]pyrimidin-1-yl)hexahydrocyclopenta[c]pyrrol-2(1H)-yl)-4-(dimethylamino)but-2-en-1-one]",3 nM,< 50%,< 50%,< 50%,< 50%,< 50%,< 50%
"CN(C)C/C=C/C(=O)N1CC2CC(n3nc(-c4ccc(C(=O)Nc5cnccn5)cc4)c4c(N)ncnc43)CC2C1 (stereo not shown) [Compound 49, (E)-4-(4-amino-1-(2-(4-(dimethylamino)but-2-enoyl)octahydrocyclopenta [c]pyrrol-5-yl)-1H-pyrazolo[3,4-d]pyrimidin-3-yl)-N-(pyrazin-2-yl)benzamide]",2.5 nM,< 50%,< 50%,< 50%,< 50%,< 50%,< 50%
"CO/C(=N\c1cc(C)ccn1)c1ccc(-c2nn(C3CC4CN(C(=O)/C=C/CN(C)C)CC4C3)c3ncnc(N)c23)cc1 (stereo not shown) [Compound 50, (Z)-methyl 4-(4-amino-1-(2-((E)-4-(dimethylamino)but-2-enoyl)octahydrocyclopenta[c]pyrrol-5-yl)-1H-pyrazolo[3,4-d]pyrimidin-3-yl)-N-(4-methylpyridin-2-yl) benzimidate]",19 nM,> 50%,< 50%,< 50%,< 50%,> 50%,< 50%
